Entries after “also recorded” stand apart in the source; their conditions may differ.
Assays:
[1] = system: IκBα; assay: TNF-induced degradation of IκBα in HUVEC (Western blot); type: cell-based; details: Homo sapiens, 20 μmol/l, 30 min pre-treatment, TNF 10 min
Method: FIG. 17 is a representation showing (A) the effect of MP3 (β-oxa 23:4n-6) and DHA on TNF-induced degradation of IκBα in HUVEC. Cells were pre-treated with the fatty acids (20 μmol/l) for 30 min and then stimulated with TNF (125 U/ml) for 10 min. After cell lysis the proteins were analyzed by Western blots using anti-IκBα antibodies. (B) The effects of β-oxa-23:4n-6 on TNF-induced activation of transcriptional factor, NFκB in HUVEC. Cells were pre-treated with β-oxa-23:4n-6 (20 μmol/l) for 30 min and then stimulated with TNF for 2 hr. After cell lysis, nuclear fractions were prepared, nuclear proteins separated by SDS PAGE (12% w/v gel), transferred to nitrocellulose and probed with an anti-NFκB p65 antibody (Santa Cruz). […] (C) The effect of β-oxa 23:4n-6 on TNF-stimulated activation of IKK. Cells were pre-treated with β-oxa 23:4n-6 (20 μmol/l) for 30 min and then stimulated with TNF for 5 min. After cell lysis IKK was immunoprecipitated with anti-IKKα antibody and kinase activity determined. […]
Proteins (50 μg) were separated by SDS PAGE (12% w/v gel), transferred to nitrocellulose and probed with an anti-NFκB p65 or anti-IκBα antibody (Santa Cruz Biotech, Santa Cruz, Calif.). Immunocomplexes were detected by enhanced chemiluminescence (Hii et al, 1998 supra).

[2] = system: HUVEC; assay: Agonist-enhanced neutrophil adherence to HUVEC; type: cell-based, human; details: 20 μmol/l, 1 hr pre-treatment, TNF 4 hr
Method: FIG. 11 is a representation showing effect of β-oxa; β-thia and natural PUFA on TNF-enhanced neutrophil adherence to HUVEC. HUVEC were pre-treated with the fatty acids (20 μmol/l) for 60 min at 37° C. before being stimulated with TNF (125 U/200 μl medium) for 4 hr at 37° C. The cells were then co-incubated with neutrophils (5×10^5 cells/well) at 37° C. for 30 min and the degree of neutrophil adherence quantitated. The results are expressed as % of control and represent the mean±SEM of three separate experiments each performed in triplicate. * p<0.05, ***p<0.001, for significant differences between pre-treatment with fatty acid and control (one-way analysis of variance followed by the Dunnett test for multiple comparisons).
Adhesion of neutrophils, prepared by the rapid-single-step method (Ferrante et al, J. Immun. Methods 36:109-117, 1980), to HUVEC isolated from umbilical cords was carried out essentially as described (Huang et al, 1997 supra).
The magnitude of the suppressive effect of -MP3 was dependent on-pre-treatment time and concentration with significant effects observed with a pre-treatment time of 1 hr and a concentration of ≧5 μmol/l.

[3] = system: cancer cells; assay: Killing of cancer cells; type: cell-based
[4] = molecular target: T1, PKC isozyme δ (Homo sapiens, UniProt Q05655); assay: PMA-induced PKC translocation in HL-60 cells (Western blot); type: cell-based; set-up: key: +++: strong inhibition of PKC activation; −: no inhibition of PKC activation; details: 20 μM, 60 min
T1 construct: endogenous in cells; host or cells: HL-60
T1 sequence (Q05655 whole entry): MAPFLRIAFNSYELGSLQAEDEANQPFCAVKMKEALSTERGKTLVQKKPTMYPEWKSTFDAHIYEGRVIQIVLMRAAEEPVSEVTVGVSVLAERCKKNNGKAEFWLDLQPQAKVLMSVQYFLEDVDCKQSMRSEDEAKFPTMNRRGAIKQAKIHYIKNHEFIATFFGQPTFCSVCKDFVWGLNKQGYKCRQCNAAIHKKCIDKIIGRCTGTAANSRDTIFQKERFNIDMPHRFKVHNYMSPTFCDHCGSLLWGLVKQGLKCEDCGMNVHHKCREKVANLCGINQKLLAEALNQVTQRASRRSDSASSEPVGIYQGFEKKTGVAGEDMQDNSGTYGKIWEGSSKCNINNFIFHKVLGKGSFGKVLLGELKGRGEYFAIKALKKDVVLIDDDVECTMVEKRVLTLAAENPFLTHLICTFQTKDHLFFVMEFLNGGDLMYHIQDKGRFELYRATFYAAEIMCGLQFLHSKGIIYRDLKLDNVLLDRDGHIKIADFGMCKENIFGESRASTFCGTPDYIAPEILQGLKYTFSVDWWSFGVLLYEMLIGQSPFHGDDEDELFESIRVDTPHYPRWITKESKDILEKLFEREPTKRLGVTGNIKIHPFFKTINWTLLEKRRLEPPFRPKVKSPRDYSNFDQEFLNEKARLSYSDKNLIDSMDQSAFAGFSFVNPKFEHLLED
Method: (§1) The effects of nitroanalogs of PUFAs on PKC activation were determined. Lx compounds at a concentration of 20 μM were incubated with the HL-60 cell line (final condition 10^6 cells/ml) for 60 min. PKC activation was then attempted to be induced by PMA. PKC enzyme translocation was quantitated by Western blot.

[5] = molecular target: T2, PKC isozyme ε (Homo sapiens, UniProt Q02156); assay: as above; type: cell-based; set-up: key: +++: strong inhibition of PKC activation; −: no inhibition of PKC activation; details: 20 μM, 60 min
T2 construct: endogenous in cells; host or cells: HL-60
T2 sequence (Q02156 1-737): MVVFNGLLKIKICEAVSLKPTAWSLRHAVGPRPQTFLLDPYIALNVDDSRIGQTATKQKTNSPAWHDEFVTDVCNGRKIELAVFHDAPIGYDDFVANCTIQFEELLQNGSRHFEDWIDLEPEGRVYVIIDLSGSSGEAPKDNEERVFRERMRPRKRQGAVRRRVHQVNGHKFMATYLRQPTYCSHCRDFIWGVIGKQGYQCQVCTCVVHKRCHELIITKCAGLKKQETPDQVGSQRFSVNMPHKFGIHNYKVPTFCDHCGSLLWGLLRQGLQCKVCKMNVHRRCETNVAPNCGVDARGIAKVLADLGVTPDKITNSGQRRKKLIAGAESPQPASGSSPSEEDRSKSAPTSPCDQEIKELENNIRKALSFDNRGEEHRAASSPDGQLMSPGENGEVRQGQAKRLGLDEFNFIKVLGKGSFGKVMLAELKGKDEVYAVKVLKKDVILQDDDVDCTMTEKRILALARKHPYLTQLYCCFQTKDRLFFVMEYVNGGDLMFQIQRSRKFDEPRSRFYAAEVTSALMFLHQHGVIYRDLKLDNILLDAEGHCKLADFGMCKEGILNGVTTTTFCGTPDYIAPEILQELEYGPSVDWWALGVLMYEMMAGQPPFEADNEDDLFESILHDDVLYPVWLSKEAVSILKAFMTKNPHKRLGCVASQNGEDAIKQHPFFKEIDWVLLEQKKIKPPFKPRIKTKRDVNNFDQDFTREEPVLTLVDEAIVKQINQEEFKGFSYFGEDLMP
Method: as §1

[6] = molecular target: T3, PKC isozyme β2 (Homo sapiens, UniProt P05771); assay: as above; type: cell-based; set-up: key: +++: strong inhibition of PKC activation; −: no inhibition of PKC activation; details: 20 μM, 60 min
T3 construct: endogenous in cells; host or cells: HL-60
T3 sequence (P05771 1-673 isoform P05771-2): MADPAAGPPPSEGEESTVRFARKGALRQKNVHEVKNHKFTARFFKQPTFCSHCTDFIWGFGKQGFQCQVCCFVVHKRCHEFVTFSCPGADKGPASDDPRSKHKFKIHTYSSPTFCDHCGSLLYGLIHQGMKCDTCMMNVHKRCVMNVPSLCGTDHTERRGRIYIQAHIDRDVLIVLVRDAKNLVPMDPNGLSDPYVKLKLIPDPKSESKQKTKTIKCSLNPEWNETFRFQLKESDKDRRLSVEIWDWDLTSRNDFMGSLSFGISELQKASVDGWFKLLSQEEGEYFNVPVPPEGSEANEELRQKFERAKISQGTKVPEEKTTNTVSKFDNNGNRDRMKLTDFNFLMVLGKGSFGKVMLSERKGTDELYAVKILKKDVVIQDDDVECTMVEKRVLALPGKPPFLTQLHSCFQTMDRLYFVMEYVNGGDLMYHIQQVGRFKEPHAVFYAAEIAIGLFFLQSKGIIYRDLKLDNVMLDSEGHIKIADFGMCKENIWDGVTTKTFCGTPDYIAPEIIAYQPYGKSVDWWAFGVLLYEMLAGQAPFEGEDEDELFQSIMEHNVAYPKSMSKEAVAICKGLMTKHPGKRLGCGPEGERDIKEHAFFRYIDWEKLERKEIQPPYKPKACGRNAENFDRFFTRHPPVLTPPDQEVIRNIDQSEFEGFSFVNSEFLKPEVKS
Method: as §1

[7] = molecular target: T4, PKC isozyme α (Homo sapiens, UniProt P17252); assay: as above; type: cell-based; set-up: key: +++: strong inhibition of PKC activation; −: no inhibition of PKC activation; details: 20 μM, 60 min
T4 construct: endogenous in cells; host or cells: HL-60
Method: as §1

[8] = PQ (phenylquinolic acid) writhing test; type: in vivo; details: intraperitoneal, 30 min before pain stimulus
Method: (§2) Investigations of the effects of PT2 on pain induced by phenylquinolic acid (PQ writhing) and formalin have been made. In both the PQ writhing test (FIG. 3) and the formalin algesia test (FIG. 4), PT2 administered by intraperitoneal inoculation reduced pain and compared favourably with pain reduction by aspirin (oral, 100 mg/kg). In these tests, the EPUFA was administered 30 min before the pain stimulus and effects recorded over the following 20 min.

[9] = system: neutrophil NADPH oxidase; assay: Neutrophil respiratory burst (NADPH oxidase activation, chemiluminescence); type: cell-based, human; details: 20 μM, 10 min, lucigenin-dependent chemiluminescence
Method: The structure of PT2 is shown in (c) above. In this screening assay, neutrophils were prepared from the blood of healthy volunteers. Freshly collected blood was layered onto a Hypaque-Ficoll medium of density 1.114 and centrifuged at 400 g for 30 mins at room temperature. After centrifugation, the leukocytes resolved into two distinct bands, with neutrophils being present in the second band (Ferrante and Thong, J. Immun. Methods 48:81-85, 1982).
Activation of the neutrophil NADPH oxidase was measured by lucigenin-dependent chemiluminescence following a 10 min incubation of PT2 (20 μM, final concentration) with 1×10^6 neutrophils from different donors (Power et al, J. Immunol. 159:2952-2959, 1997). Arachidonic acid (20:4, n-6) was used as a positive stimulator of the oxidase
Neutrophil respiratory burst was determined as previously described (Li et al, J. Clin. Invest. 97:1605-1609, 1996).

[10] = Formalin-induced pain test (hind paw licking time); type: in vivo; details: for % inhibition of pain response, Phase I (0-5 mins) / % inhibition of pain response, Phase II (15-20 mins): 30 min prior to formalin, mean of 5 animals
Method: as §2
Investigations of PT2 in the formalin-induced analgesia model looking specifically at the biphasic response have also been undertaken and are shown in Table 1. It is well documented that in this model, aspirin suppresses only pain related to the inflammatory process (15-20 mins post-administration of formalin), while morphine suppresses pain in both phases of the response (0-5 min and 15-20 min).
Compounds were administered intraperationedly (ip) 30 min prior to the administration of formalin (0.02 ml, 1% solution) via subplantar injection into the right hind paw. Reduction of the induced hind paw licking time recorded during the following 0-5 min period (Phase I response) or 15-20 min period (Phase II response) was determined. The data in Table 1 are the mean responses of 5 animals in each group.

[11] = system: VCAM-1; assay: Adhesion molecule expression on HUVEC (ELISA); type: cell-based, human; details: 20 μmol/l, 60 min pre-treatment
Method: (§3) FIG. 13 is a representation showing effect of MP3 (β-oxa-23:4n-6) and 20:4n-6 on time-related changes in TNF-α-induced E-selectin, ICAM-1 and VCAM-1 expression on HUVEC. HUVEC were pre-treated with 20 μmol/l β-oxa-23:4n-6 (closed triangles), 20 μmol/l 20:4n-6 (open squares), or DPC (control) for 60 min and then further incubated with TNF-α (125 U/200 μl medium) for up to 24 hr. The expression of E-selectin, ICAM-1 and VCAM-1 adhesion molecules was determined by ELISA. The results are expressed as % of control and represent the mean±SEM of three separate experiments each performed in triplicate. * p<0.05, **p<0.01, ***p<0.001, for significant differences between pre-treatment with fatty acid and corresponding control at a particular time point (one-way analysis of variance followed by the Dunnett test for multiple comparisons). Inset: The effect of β-oxa-23:4n-6 on TNF-α-induced expression of E-selectin mRNA in HUVEC. HUVEC were pre-incubated with β-oxa-23:4n-6 (20 μmol/l) or DPC (control) in 1 ml of medium at 37° C. for 60 min. After the addition of TNF-α, the cells were further incubated at 37° C. for 2 hr. E-selectin mRNA expression was then determined and the results expressed as relative %. Results are the mean±SEM of three separate experiments each performed in quadruplicate. *p<0.0001, for significant differences between pre-treatment with β-oxa-23:4n-6, and control (two-tailed Student's t-test for unpaired data).
(§4) HUVEC were stimulated with TNF, bacterial lipopolysaccharide (LPS) or PMA for 24 hr. Expression of E-selectin, ICAM-1 and VCAM-1 was determined by an enzyme-linked immunosorbent assay (ELISA) or as mRNA using a slot blot technique (Huang et al 1997 supra).

[12] = system: ICAM-1; assay: Adhesion molecule expression on HUVEC (ELISA); type: cell-based, human; details: 20 μmol/l, 60 min pre-treatment
Method: as §3, §4

[13] = system: E-selectin; assay: Adhesion molecule expression on HUVEC (ELISA, mRNA slot blot); type: cell-based, human; details: 20 μmol/l, 60 min pre-treatment
Method: as §3, §4

[14] = In vitro assays (not specified)

For `CC/C=C\C/C=C\C/C=C\C/C=C\C/C=C\C/C=C\CCC(=O)O` [22:6n-3, docosahexaenoic acid, reference compound], which inhibition at 20 µM [1] is on record?
The inhibition at 20 µM was under 50%.

And the “Inhibition of TNF-α-enhanced neutrophil adhesion to HUVEC” value [2]?
The value was “no significant effect”.

What does the source list for `CCCCCCCCCCCCCCCCCC(CCC(=O)O)(CCC(=O)O)[N+](=O)[O-]` [Lx8]?
Killing of cancer cells [3]: kills cells very poorly; Inhibition of PKC activation, isozyme δ [4]: +++; Inhibition of PKC activation, isozyme ε [5]: +++; Inhibition of PKC activation, isozyme β2 [6]: +++; Inhibition of PKC activation, isozyme α [7]: +++

For `CCCCC/C=C\C/C=C\C/C=C\C/C=C\CCCC(CCC(=O)O)(CCC(=O)O)[N+](=O)[O-]` [Lx9], which “Killing of cancer cells” value [3] is on record?
Its value is “strong in killing cancer cells”.

What about the “Inhibition of PKC activation, isozyme β2” value [6] of the same compound?
Its value is “+++”.

What about the “Inhibition of PKC activation, isozyme α” value [7] of the same compound?
The value was “−”.

Which results are given for `CCCCC/C=C\C/C=C\C/C=C\C/C=C\CCCC(=O)NC(CC(=O)O)C(=O)O` (centres unmarked) [PT2]?
Pain reduction in PQ writhing test [8]: reduced pain; Stimulation of the neutrophil respiratory burst [9]: lacks the ability to stimulate the neutrophil respiratory burst; % inhibition of pain response, Phase I (0-5 mins) ([10]; 30 mg/kg ip): 0%; % inhibition of pain response, Phase II (15-20 mins) ([10]; 30 mg/kg ip): 41%; % inhibition of pain response, Phase I (0-5 mins) ([10]; 100 mg/kg ip): 30%; % inhibition of pain response, Phase II (15-20 mins) ([10]; 100 mg/kg ip): 97%; Pain reduction in formalin test ([10]; intraperitoneal, 30 min before pain stimulus): reduced pain; also recorded: acts similarly to aspirin in having its major effect on the later phase of the pain response

Which “Suppression of TNF-α-induced VCAM-1 expression on HUVEC” value [11] does the source give for `CCCCC/C=C\C/C=C\C/C=C\C/C=C\CCCC(=O)O` [arachidonic acid, reference compound] here?
The value was “no significant effect”.

What about the “Suppression of TNF-α-induced ICAM-1 expression on HUVEC” value [12] of the same compound?
The value was “no significant effect”.

What about the “Stimulation of the neutrophil respiratory burst” value [9] of the same compound?
Its value is “able to elicit a strong respiratory burst”.

What about the “Suppression of TNF-α-induced E-selectin expression on HUVEC” value [13] of the same compound?
The value was “no significant effect”.

What about the “Inhibition of TNF-α-enhanced neutrophil adhesion to HUVEC” value [2] of the same compound?
Its value is “no significant effect”.

Which “Biological activity in in vitro assays” value [14] does the source give for β-oxa-23:0 [MP1] here?
The value was “biologically inactive”.

Source: patent US20090215895A1, “Therapeutic and carrier molecules” (PEPLIN BIOLIPIDS PTY LTD, priority 2004, published 2009)
